Laboratory results taken from patent EP0259782A1, “Naphthalene and indane derivatives, medicaments containing these compounds and processes for their preparation” (Dr. Karl Thomae GmbH, priority 1986, dated 1988).

Legend:
[1] = test system: Mäusen; settings: in vivo, iv, 10 mg/kg
Excerpt: Die erfindungsgemäß hergestellten Verbindungen weisen in therapeutischen Dosen keinerlei toxische Nebenwirkungen auf.

[2] = test system: Herzfrequenz an Ratten; test: Effect on heart rate in anaesthetised rats; format: in vivo; settings: rats anaesthetised with pentobarbital; dose 5,0 mg/kg injected into the Vena jugularis; 5 minutes after application; control heart rate 350-400 S/min; 2 rats per dose
Method: Wirkung auf die Herzfrequenz an Ratten: Die Wirkung der zu untersuchenden Substanzen auf die Herzfrequenz wurde pro Dosis an 2 Ratten mit einem durchschnittlichen Gewicht von 250-300 g untersucht. Hierzu wurden die Ratten mit Pentobarbital (50 mg/kg i.p. und 10 mg/kg s.c.) narkotisiert. Die zu untersuchenden Substanzen […]ösung in die Vena jugularis injiziert (0,1 ml/100 g). Der Blutdruck wurde über in eine A. carotis eingebundene Kanüle gemessen und die Herzfrequenz wurde aus einem mit Nadelelektroden abgeleiteten EKG (II. oder III. Ableitung) registriert. Die Herzfrequenz der […] 350 und 400 Schlägen/Minuten (S/min).

## COc1ccc(CCN(C)CCCC2CCc3cc(OC)c(OC)cc3C2=O)cc1OC (centres unmarked) [Substanz A, 6,7-Dimethoxy-2-[3-((2-(3,4-dimethoxyphenyl)-ethyl)-methylamino)-propyl]-1-oxo-1,2,3,4-tetrahydro-naphthalin]
[1]
  toxische Nebenwirkungen: außer einer geringen Sedation keine toxischen Nebenwirkungen
[2]
  Herzfrequenzsenkung, gemessen 5 Minuten nach Substanzapplikation: 157 S/min

## COc1ccc(CCN(C)CCCC2CCc3cc(OC)c(OC)cc3C2)cc1OC.Cl (centres unmarked) [Substanz B, 6,7-Dimethoxy-2-[3-((2-(3,4-dimethoxyphenyl)-ethyl)-methylamino)-propyl]-1,2,3,4-tetrahydro-naphthalin-hydrochlorid]
[2]
  Herzfrequenzsenkung, gemessen 5 Minuten nach Substanzapplikation: 150 S/min

## COc1ccc(CCN(C)CCCC2Cc3cc(OC)c(OC)cc3C2O)cc1OC (centres unmarked) [Substanz C, 5,6-Dimethoxy-2-[3-((2-(3,4-dimethoxyphenyl)-ethyl)-methylamino)-propyl]-1-hydroxy-indan]
[1]
  toxische Nebenwirkungen: außer einer geringen Sedation keine toxischen Nebenwirkungen
[2]
  Herzfrequenzsenkung, gemessen 5 Minuten nach Substanzapplikation: 152 S/min
